# Patent publication US8334236B2, “Ring-fused 2-pyridone derivatives and herbicides” (Kumiai Chemical Industry Co., Ltd., priority 2009, dated 2012)
# Columns and labels:
# [1] = system: Echinochloa oryzicola Vasing; test: Test Example 1: herbicidal effects in paddy field soil treatment; assay type: in vivo; set-up: scale not given here; settings: 1000 g active ingredient per hectare, 21st day after treatment
# Experimental: (§1) 100-cm^2 plastic pots were filled with paddy field soil. After puddling and leveling, seeds of Echinochloa oryzicola Vasing, Monochoria vaginalis (Burm. f.) Presl var. plantaginea (Roxb.) Solms-Laub., and Scirpus juncoides Roxb. var. ohwianus. T. Koyama were sowed in the pots, and the soil was waterlogged to a water depth of 3 cm. On the next day, a wettable powder formulation prepared according to Formulation Example 1 was diluted with water, and the dilution was added dropwise onto the water surface. The amount of application was an amount equivalent to 1000 g of the active ingredient per hectare. Thereafter, the plants were grown in a greenhouse, and on the 21st day after the treatment, the herbicidal effects were investigated according to the criteria described in Table 71.
# (§2) In addition, comparative compound A, comparative compound B, comparative compound C, and comparative compound D in the tables represent Compound Nos. 70, 34, 32, and 31, respectively, as described in EP-283261. The structural formulas of these compounds are presented below.
# [2] = system: Monochoria vaginalis (Burm. f.) Presl var. plantaginea (Roxb.) Solms-Laub.; test: as above; assay type: in vivo; set-up: scale not given here; settings: 1000 g active ingredient per hectare, 21st day after treatment
# Experimental: as §1, §2
# [3] = system: Scirpus juncoides Roxb. var. ohwianus. T. Koyama; test: as above; assay type: in vivo; set-up: scale not given here; settings: 1000 g active ingredient per hectare, 21st day after treatment
# Experimental: as §1, §2
# [4] = system: Abutilon theophrasti medicus; test: Test Example 2: herbicidal effects in farmland soil treatment; assay type: in vivo; set-up: scale not given here; settings: 1000 g active ingredient per hectare, 21st day after treatment
# Experimental: (§3) 80-cm^2 plastic pots were filled with farmland soil. Seeds of Abutilon theophrasti medicus and Amaranthus retroflexus were sowed in the pots, and soil was covered. A wettable powder formulation prepared according to Formulation Example 1 was diluted with water, and the dilution was uniformly sprayed on the soil surface with a small sprayer, in an amount equivalent to 1000 liters per hectare, such that 1000 g of the active ingredient was applied per hectare. Thereafter, the plants were grown in a greenhouse, and on the 21st day after the treatment, the herbicidal effects were investigated according to the criteria described in Table 71 shown above.
# Amaranthus retroflexus [5] = test: as above; assay type: in vivo; set-up: scale not given here; settings: 1000 g active ingredient per hectare, 21st day after treatment
# Experimental: as §3
# Echinochloa crus-galli = test: as above; assay type: in vivo; set-up: scale not given here; settings: 1000 g active ingredient per hectare, 21st day after treatment
# Setaria viridis [6] = test: as above; assay type: in vivo; set-up: scale not given here; settings: 1000 g active ingredient per hectare, 21st day after treatment
# [7] = system: Abutilon theophrasti medicus; test: Test Example 3: herbicidal effects in farmland foliar treatment; assay type: in vivo; set-up: scale not given here; settings: 1000 g active ingredient per hectare, 14th day after treatment
# Experimental: (§4) 80-cm^2 plastic pots were filled with farmland soil. Seeds of Echinochloa crus-galli (L.) P. Beauv. var. crus-galli, Abutilon theophrasti medicus, and Amaranthus retroflexus were sowed in the pots, and the plants were grown for two weeks in a greenhouse. A wettable powder formulation prepared according to Formulation Example 1 was diluted with water, and the dilution was applied by foliar treatment by spraying with a small sprayer over the whole plant from the upper part, in an amount equivalent to 1000 liters per hectare, such that 1000 g of the active ingredient was applied per hectare. Thereafter, the plants were grown in a greenhouse, and on the 14th day after the treatment, the herbicidal effects were investigated according to the criteria described in Table 71 shown above.
# Amaranthus retroflexus [8] = test: as above; assay type: in vivo; set-up: scale not given here; settings: 1000 g active ingredient per hectare, 14th day after treatment
# Experimental: as §4
# [9] = system: Echinochloa crus-galli (L.) P. Beauv. var. crus-galli; test: as above; assay type: in vivo; set-up: scale not given here; settings: 1000 g active ingredient per hectare, 14th day after treatment
# Experimental: as §4
# Setaria viridis [10] = test: as above; assay type: in vivo; set-up: scale not given here; settings: 1000 g active ingredient per hectare, 14th day after treatment
melting point,SMILES,"Herbicidal effect index, Echinochloa oryzicola [1]","Herbicidal effect index, Monochoria vaginalis [2]","Herbicidal effect index, Scirpus juncoides [3]","Herbicidal effect index, Abutilon thophrasti [4]","Herbicidal effect index, Amaranthus retroflexus (Amaranthus retroflexus [5])","Herbicidal effect index, Echinochloa crus-galli (Echinochloa crus-galli)","Herbicidal effect index, Setaria viridis (Setaria viridis [6])","Herbicidal effect index, Abutilon theoprasti [7]","Herbicidal effect index, Amaranthus retroflexus (Amaranthus retroflexus [8])","Herbicidal effect index, Echinochloa crus-galli [9]","Herbicidal effect index, Setaria viridis (Setaria viridis [10])"
179 to 181 °C,"Cn1c(=O)c(C(=O)C2=C(O)CCCC2=O)cc2ccccc21 [I-2, 3-(2-hydroxy-6-oxo-1-cyclohexenecarbonyl)-1-methylquinolin-2(1H)-one]",5,5,5,–,–,–,–,–,–,–,–
190 to 192 °C,"O=C1CCCC(O)=C1C(=O)c1cc2cccnc2n(Cc2ccccc2)c1=O [II-24, 1-benzyl-3-(2-hydroxy-6-oxo-1-cyclohexenecarbonyl)-1,8-naphthyridin-2(1H)-one]",5,5,5,5,5,5,3,–,–,–,–
147 to 150 °C,"COc1ccccc1Cn1c(=O)c(C(=O)C2=C(O)CCCC2=O)cc2cccnc21 [II-37, 3-(2-hydroxy-6-oxo-1-cyclohexenecarbonyl)-1-(2-methoxybenzyl)-1,8-naphthyridin-2(1H)-one]",5,5,5,–,–,–,–,–,–,–,–
–,Cc1ccccc1-n1c(=O)c(C(=O)C2=C(O)CCCC2=O)cc2cccnc21 [II-48],5,5,5,4,5,5,5,5,5,5,5
–,O=C1CCCC(O)=C1C(=O)c1cc2cccnc2n(-c2cccc(C(F)(F)F)c2)c1=O [II-52],5,5,5,5,5,5,5,5,5,5,5
–,COc1ccccc1-n1c(=O)c(C(=O)C2=C(O)CCCC2=O)cc2cccnc21 [II-54],5,5,5,5,5,5,5,5,5,5,5
–,COc1cccc(-n2c(=O)c(C(=O)C3=C(O)CCCC3=O)cc3cccnc32)c1 [II-55],5,5,5,5,5,5,5,5,5,5,5
–,COc1ccc(-n2c(=O)c(C(=O)C3=C(O)CCCC3=O)cc3cccnc32)cc1 [II-56],5,5,5,5,5,5,5,5,5,5,5
–,Cc1ccc(C)c(-n2c(=O)c(C(=O)C3=C(O)CCCC3=O)cc3cccnc32)c1 [II-58],5,5,5,5,5,5,5,5,5,5,5
–,Cc1ccc2cc(C(=O)C3=C(O)CCCC3=O)c(=O)n(-c3ccccc3)c2n1 [II-123],5,5,5,5,5,5,5,5,5,5,5
–,CC(C)c1ccc2cc(C(=O)C3=C(O)CCCC3=O)c(=O)n(-c3ccccc3)c2n1 [II-128],5,5,5,4,5,5,5,5,5,5,5
–,Cn1c(=O)c(C(=O)C2=C(O)CCCC2=O)cc2ccc(C(F)F)nc21 [II-131],5,5,5,5,5,4,3,5,5,4,4
–,O=C1CCCC(O)=C1C(=O)c1cc2ccc(C(F)F)nc2n(-c2ccccc2)c1=O [II-133],5,5,5,5,5,5,5,5,5,5,5
–,Cn1c(=O)c(C(=O)C2=C(O)CCCC2=O)cc2ccc(C(F)(F)Cl)nc21 [II-141],5,5,5,5,3,3,4,5,4,3,4
–,O=C1CCCC(O)=C1C(=O)c1cc2ccc(C(F)(F)Cl)nc2n(-c2ccccc2)c1=O [II-143],5,5,5,5,5,5,5,5,5,5,5
